Results on one compound are retold here after patent US8546357B2, “Boron-containing small molecules for controlling ectoparasites” (priority 2011, dated 2013).

Experiment [1] concerns brown dog tick (Rhipicephalus sanguineus). Description: Residual efficacy against adult brown dog tick infestations on dogs, oral. Conditions: Day 32. Type of experiment: in vivo. How it is done: (§1) Immediately following removal of D. variabilis ticks on Day 30, dogs were co-infested with approximately 50 adult, unfed brown dog ticks (R. sanguineus, approximately 50% male and 50% female) and approximately 100 adult, unfed cat fleas (C. felis, approximately 50% male and 50% female). Ticks and fleas were counted and removed on Day 32 (approximately 48 hours after infestation). GM percent efficacy of treatments against both tick species and fleas was calculated using the following formula: […]
(§2) The therapeutic (knockdown) and residual efficacy of 7, administered orally at a point dose of 35 mg/kg bodyweight, was evaluated against adult tick (Dermacentor variabilis and Rhipicephalus sanguineus) and adult cat flea (Ctenocephalides felis) infestations on dogs. Twelve (12) male and female beagle dogs were allocated to either an untreated, negative control group or 7 group (n=6 dogs per group). Dogs were infested with approximately 50 unfed, adult D. variabilis ticks on Days −1, 5, 12, 19, 28, 35 and 42. On Day 0, dogs were orally administered gelatin capsules containing Compound 8194 (50% technical active, 47% microcrystalline cellulose and 3% croscarmellose sodium, w/w) at a point dose of 35 mg/kg. D. variabilis tick counts and classification were conducted on Day 1 (thumb count, approximately 24 hours after treatment) and Days 2, 7, 14, 21, 30, 37 and 44 (approximately 48 hours after treatment). Following removal of D. variabilis ticks on Day 30, all dogs were co-infested with approximately 50 unfed, adult brown dog ticks (R. sanguineus) and approximately 100 unfed, adult cat fleas (C. felis). Brown dog tick and cat flea counts were conducted on Day 32 (approximately 48 hours after infestation). GM percent efficacy of treatments against both tick species and fleas was calculated using the following formula: […]
(§3) The therapeutic (knockdown) and residual efficacy of S-enantiomer, 9, administered orally at a point dose of 25 mg/kg bodyweight, was evaluated against adult tick (Dermacentor variabilis and Rhipicephalus sanguineus) and adult cat flea (Ctenocephalides felis) infestations on dogs. Twelve (12) male and female beagle dogs were allocated to either an untreated, negative control group or 9 group (n=6 dogs per group). Dogs were infested with approximately 50 unfed, adult D. variabilis ticks on Days −1, 5, 12, 19, and 28. On Day 0, dogs were orally administered gelatin capsules containing 9 (50% technical active, 47% microcrystalline cellulose and 3% croscarmellose sodium, w/w) at a point dose of 25 mg/kg. D. variabilis tick counts and classification were conducted on Day 1 (thumb count, approximately 24 hours after treatment) and Days 2, 7, 14, 21 and 30 (approximately 48 hours after treatment). Following removal of D. variabilis ticks on Day 30, all dogs were co-infested with approximately 50 unfed, adult brown dog ticks (R. sanguineus) and approximately 100 unfed, adult cat fleas (C. felis). Brown dog tick and cat flea counts were conducted on Day 32 (approximately 48 hours after infestation). GM percent efficacy of treatments against both tick species and fleas was calculated using the following formula: […]

The subject of experiment [2] is cat flea (Ctenocephalides felis). Description: Residual efficacy against adult cat flea infestations on dogs, oral. Type of experiment: in vivo. The following applies: Day 32. As for the experimental part:
as §1, §2, §3

Setting [3] is: Example 7, oral capsule 35 mg/kg.

In the case of `Cc1cc(C2=NOC(c3cc(Cl)c(Cl)c(Cl)c3)(C(F)(F)F)C2)ccc1C(=O)NCc1ccc2c(c1)B(O)OC2(C)C` (stereo not shown) [Compound 7, N-((1-Hydroxy-3,3-dimethyl-1,3-dihydrobenzo[c][1,2]oxaborol-6-yl)methyl)-2-methyl-4-(5-(3,4,5-trichlorophenyl)-5-(trifluoromethyl)-4,5-dihydroisoxazol-3-yl)benzamide], the Residual efficacy in experiment [1] (setting [3]) stood at 98.7%; in experiment [2] (setting [3]), 100%. The “Geometric mean group live parasite counts” value is 4.8 in experiment [1] (Table 2, oral capsule 25 mg/kg) and 0.9 in experiment [2] (Table 2, oral capsule 25 mg/kg).
